Measured values as given in ChEMBL document CHEMBL1130977, “5-Aminomethylquinoxaline-2,3-diones. Part II: N-aryl derivatives as novel NMDA/glycine and AMPA antagonists” (Bioorg Med Chem Lett, 1998).

What was measured:
[1] = target: Glutamate receptor ionotropic, AMPA (Rattus norvegicus, UniProt P19490+P19491+P19492+P19493); assay: Tested for in vitro binding affinity against AMPA receptor using [3H]-AMPA binding assay; format: protein-complex assay
Glutamate NMDA receptor = assay: Inhibition of [3H]MDL-105,519 binding to NMDA receptor glycine-binding site; format: protein-complex assay, Rattus norvegicus
[2] = target: Glutamate NMDA receptor (Rattus norvegicus) (UniProt P35439+Q00959+Q00960+Q00961+Q62645+Q8VHN2+Q9R1M7); assay: Inhibition of [3H]MDL-105519 binding to NMDA receptor glycine binding site; format: protein-complex assay; set-up: concentration or dose not given beside the values; details: concentration not given here
[3] = target: T1, Glutamate receptor ionotropic, AMPA (Rattus norvegicus) (UniProt P19491+P19492+P19493+P19490); assay: Tested for in vitro binding affinity against AMPA receptor using [3H]-AMPA binding assay at a concentration of 1 uM; format: protein-complex assay
[4] = target: T1, Glutamate receptor ionotropic, AMPA (Rattus norvegicus); assay: Tested for in vitro binding affinity against AMPA receptor using [3H]AMPA binding assay; format: protein-complex assay

SMILES | IC50 [1] [nM] | IC50 (Glutamate NMDA receptor) [nM] | inhibition [2] [%] | inhibition [3] [%] | Activity [4] [nM]
CCOC(=O)Cc1csc(NCc2cc([N+](=O)[O-])cc3nc(O)c(O)nc23)n1 | 1800 | 410 |  |  | 
O=C(O)[C@@H]1CCCC[C@@H]1NCc1cc([N+](=O)[O-])cc2nc(O)c(O)nc12 | 670 |  | 25 |  | 
O=[N+]([O-])c1cc(CNc2ccccn2)c2nc(O)c(O)nc2c1 | 500 |  | 0 |  | 
O=C(O)c1ccccc1NCc1cc([N+](=O)[O-])cc2nc(O)c(O)nc12 | 50 | 50 |  |  | 
COC(=O)c1ccccc1NCc1cc(Cl)cc2nc(O)c(O)nc12 |  |  | 25 | 0 | 
O=[N+]([O-])c1cc(CNCc2ccncc2)c2nc(O)c(O)nc2c1 | 1400 |  | 36 |  | 
O=[N+]([O-])c1cc(CNc2cnccn2)c2nc(O)c(O)nc2c1 | 220 |  | 59 |  | 
O=[N+]([O-])c1cc(CNc2ccccc2F)c2nc(O)c(O)nc2c1 | 1400 | 500 |  |  | 
COC(=O)C1CCCC(NCc2cc([N+](=O)[O-])cc3nc(O)c(O)nc23)C1 (stereo unspecified) | 1300 |  | 30 |  | 
CCOC(=O)Cc1csc(NCc2cc(Br)cc3nc(O)c(O)nc23)n1 |  | 340 |  | 17 | 
O=C(O)Cc1csc(NCc2cc(Br)cc3nc(O)c(O)nc23)n1 | 1450 | 120 |  |  | 
O=[N+]([O-])c1cc(CNc2nccs2)c2nc(O)c(O)nc2c1 | 190 |  | 41 |  | 
O=[N+]([O-])c1cc(CNc2cccc(F)c2)c2nc(O)c(O)nc2c1 | 1400 | 720 |  |  | 
O=C(O)c1ccc(NCc2cc([N+](=O)[O-])cc3nc(O)c(O)nc23)cc1 | 1600 |  | 10 |  | 
O=[N+]([O-])c1cc(CN2CCC(O)C2)c2nc(O)c(O)nc2c1 (stereo unspecified) |  |  |  |  | 330
O=[N+]([O-])c1cc(CNc2cccnc2)c2nc(O)c(O)nc2c1 | 970 |  | 12 |  | 
O=C(O)Cc1csc(NCc2cc([N+](=O)[O-])cc3nc(O)c(O)nc23)n1 | 180 | 120 |  |  | 
O=[N+]([O-])c1cc(CNc2ncccn2)c2nc(O)c(O)nc2c1 | 380 |  | 12 |  | 
O=C(O)C1CCCC(NCc2cc([N+](=O)[O-])cc3nc(O)c(O)nc23)C1 (stereo unspecified) | 780 |  | 21 |  | 
O=C(O)c1ccccc1NCc1cc(Cl)cc2nc(O)c(O)nc12 | 2000 | 30 |  |  | 
O=[N+]([O-])c1cc(CNc2ccccc2)c2nc(O)c(O)nc2c1 | 1500 | 1400 |  |  | 
O=C(O)c1cccc(NCc2cc([N+](=O)[O-])cc3nc(O)c(O)nc23)c1 | 900 |  | 0 |  | 
Oc1nc2cc(Br)cc(CNCc3ccccn3)c2nc1O | 12000 |  | 40 |  | 
NC(=O)[C@@H]1CCCC[C@@H]1NCc1cc([N+](=O)[O-])cc2nc(O)c(O)nc12 | 650 |  | 25 |  | 
O=[N+]([O-])c1cc(CNCc2ccccn2)c2nc(O)c(O)nc2c1 | 3100 |  | 40 |  | 
O=[N+]([O-])c1cc(CNc2ccc(F)cc2)c2nc(O)c(O)nc2c1 | 1200 | 750 |  |  | 
